# Data as given in US7655392B2, “Quenching methods for red blood cell inactivation process” (priority 2004, dated 2010).
# Where two headings read alike, the source gives them in different places.
# System: red blood cells
# Format: cell-based
# Conditions: unit 6: 0.2 mM GSH+2 eq base, no PIC-1
# Procedure: In another assay, the rabbit polyclonal sera may be reacted with treated red blood cells. After washing off unbound antibody, a FITC labeled goat anti-rabbit Fab′2 fragment (anti H+L chains, Caltag) is added. The binding of FITC label to the red blood cells correlates with the amount of acridine bound to the red blood cell surface, and is assessed by FACScan™ analysis (Becton, Dickinson and Co., NJ). The relative modification of the red blood cells is determined from the FACScan™ mean fluorescence value.
# A 20 mL sample of leukoreduced whole blood (Blood Source, Sacramento, Calif.) was centrifuged at 4,100×g for 5 minutes at room temperature in each of four 50 mL centrifuge tubes. The supernatant was removed from each tube to provide red cell concentrate (RCC). […] For each washed RCC, cells were resuspended in 5 mL of the solution used for washing. This is now referred to as the RBC test sample. […] These samples were incubated for 20 hours at room temperature. After incubation, the RBC were washed in BBS (Blood Bank Saline, 0.9% saline, unbuffered, Fisher Scientific) and were diluted to a final hematocrit of 4%. A 25 μL aliquot of each was mixed with 15 μL of rabbit polyclonal anti-acridine sera diluted 1:100 in BBS and the mixture was incubated at 37° C. for 30 minutes. The cells were subsequently washed with 1.5 mL BBS. After washing was complete, the cells were mixed with 50 μL of FITC labeled goat anti-rabbit Fab′2 fragment (1:64 dilution in BBS) and incubated at 37° C. for 30 minutes. […] Note that the quenching improves as glutathione is neutralized with increasing amounts of sodium hydroxide.
# The FACScan analysis of the binding of rabbit anti-acridine sera to treated red cells was used to assess a variety of quenching conditions. […] The tables represent data from two different experiments, each with samples treated under standard conditions or with 20 mM neutralized glutathione. […] The data within an experiment provides the relative efficacy of the various treatments. Because the assay may depend on the lot of red blood cells used, the absolute values of mean fluorescence may vary from one study to the next, such that relative values should only be compared within a given experiment. […] Neutralized glutathione at 20 mM results in close to background levels.
# An untreated control sample as well as a standard sample (co-addition of 2 mM acidic glutathione with 0.2 mM PIC-1) were also assessed.
# Full units of red cell concentrates (Interstate Blood Bank, Inc., Memphis, Tenn.) were leukoreduced. A volume of 200 mL of this RCC (80% hematocrit) was mixed with 94 mL of Erythrosol or 100 mL of Adsol (Baxter Healthcare Corp., Deerfield, Ill.) as control (unit 1). A volume of 20 mL 8% dextrose was used to dissolve PIC-1 (mg) and acid glutathione (mg) and added to one unit to provide 0.2 mM PIC-1 and 2 mM glutathione (unit 2). […] For the glutathione, 1.2 mL of 10 N NaOH was added (2 equivalents). The PIC-1 was mixed with the unit, followed 1 minute later (unit 3) or 5 minutes later (unit 4) by glutathione. For unit 5, neutralized glutathione was mixed first, followed 10 minutes later by the PIC-1. […] All units were mixed by grasping the ends of the blood bag and mixing in a FIG. 8 motion 30 times. These were then incubated at room temperature for 20 hours total. A compound adsorption device (CAD), comprising a polymeric resin contained within a mesh pouch, was used for all but the control sample. This device is intended to remove residual PIC-1, PIC-1 breakdown products, and glutathione from the samples. Samples were incubated for 8 hours, then transferred to a second blood bag containing the CAD and incubated for an additional 12 hours. Following the room temperature incubation, samples were transferred to a refrigerator (4° C.) and stored up to 43 days.
compound,measurement,setting,value
"N[C@@H](CCC(=O)N[C@@H](CS)C(=O)NCC(=O)O)C(=O)O [glutathione, γ-L-glutamyl-L-cysteinyl-glycine]",mean fluorescence,16C day 0.8,2.16
same,mean fluorescence,16C day 2,1.78
same,mean fluorescence,16C day 7,1.58
same,mean fluorescence,16C day 14,1.48
same,mean fluorescence,16C day 22,1.58
same,mean fluorescence,16C day 28,2.02
same,mean fluorescence,16C day 35,1.62
same,mean fluorescence,16C day 43,1.8
